{"source": "paper PMC4349624", "about": "“In vitro synergistic effect of fluoroquinolone analogues in combination with artemisinin against Plasmodium falciparum; their antiplasmodial action in rodent malaria model” (Malaria Journal, 2015)", "key": {"[1]": {"test_system": "Plasmodium falciparum 3D7 strain", "assay": "antiplasmodial interaction assay, fixed-ratio combination isobologram method with artemisinin", "type": "cell-based", "conditions": "n = 3", "procedure": "Stock culture of malaria parasite P. falciparum 3D7 strain (chloroquine sensitive) was continuously maintained in vitro using a CO2 incubator under low-oxygen concentration (3%) and high carbon dioxide atmosphere (4%) along with nitrogen (93%), incubated at a temperature of 37°C. The parasites were maintained on O^+ human red blood cells suspended in a complete culture medium. Each litre of RPMI-1640 aqueous culture medium was prepared with 10.4 g of powdered RPMI-1640 (with glutamine but without sodium bicarbonate), 5.94 g of HEPES buffer, 1 g of dextrose and 40 mg of gentamicin. Complete medium was constituted just before use by adding sterile 5% sodium bicarbonate at the rate of 4 ml per 96 ml, and supplemented with 10% (v/v) pooled O^+ human serum. Infected erythrocytes were suspended in this culture media initiated at a haematocrit value of 5% and parasitemia was kept between 2 and 4% with sub-culturing done beyond 5%. Medium was changed once a day and percentage parasitemia was monitored using Giemsa stained slides.\nArtemisinin (Sigma Aldrich, USA) was prepared in DMSO to get the stock solution of 1 mg/ml strength. Compounds 10, 12 and 18 were synthesized according to the procedure described by Dixit et al. and each compound was made to strength of 1 mg/ml stock solution in DMSO. The stock solutions were diluted on the day of experiment to get the desired concentrations for each compound. The highest amount of DMSO in diluted concentrations was 0.125%, and had no effect on parasite growth.\nIn each combination assay, two compounds (Compound A, artemisinin and Compound B, a fluoroquinolone derivative or norfloxacin) were combined in four fixed ratios (4:1, 3:2, 2:3, and 1:4).\nCompound dilutions of each combination solution were made in sterile, flat-bottomed, 96-well tissue culture plates as described by Fivelman et al.. Six times two-fold serial dilution was done for each combination in triplicate. Each well contained a total volume of 200 μl of complete culture medium with or without compound and pre-synchronized infected red blood cells (1% parasitemia at 2.5% haematocrit). Control cultures (without compound) were maintained on the same plate in triplicate. Two 96-well plates (for six combinations) were used for each combination experiment. The plates were stacked in a CO2 incubator and incubated at 37°C for 48 hours.\nAfter 48-hour incubation, thin blood smear slides were prepared, air dried, methanol fixed, and stained in Giemsa solution for 40 min. After staining, slides were removed from coupling jar, washed in running tap water and air dried. The Giemsa-stained slides were examined for counting the number of parasites in random adjacent microscopic fields, equivalent to about 4,000 erythrocytes at 1,000 × magnification. Per cent parasitemia was calculated. Reproducibility of counts was checked by two other readers to maintain the quality control.\nFor each combination assay, IC50 was calculated from two sets of concentration response graphs, each containing compound alone curve and four combination curves.\nƩFIC <1 represents synergism, ƩFIC > = 1 and <2 represents additive interaction, ƩFIC > = 2 and <4 represents slight antagonism while ƩFIC > = 4 represents marked antagonism."}, "Plasmodium berghei ANKA": {"test_system": "Plasmodium berghei ANKA", "assay": "Peters' four-day suppressive test in BALB/c mice", "type": "in vivo", "conditions": "ip; for Mean ED50 ± SE: once daily days 0 to 3, BALB/c mice, n = 5", "source_text": "Evaluation of the curative potential of the fluoroquinolone derivatives was done using the method described by Ryley and Peters, 1970 (rodent malaria four-day suppressive test; Peters’ four-day suppressive test). Rodent malaria parasite Plasmodium berghei ANKA was used.\n[…] BALB/c inbred albino mice (25–30 g) of the male sex were obtained from the Animal Facility Centre of the Department of Zoology, University of Delhi. The animals were fed ad libitum with standard feed and had free access to water. They were maintained under standard conditions of humidity, temperature (25°C) and 12 hours light/darkness cycles. The animals were acclimatized for two weeks before the commencement of the study and were ensured to exclude all zoonotic agents.\nDay 0: Heparinized blood was withdrawn from an infected donor mouse with approximately 25-30% parasitemia, and diluted in 1x PBS to 10^8 parasitized erythrocytes per mL. An aliquot of 0.2 mL (=2 × 10^7 parasitized erythrocytes) of this suspension was injected intraperitoneally (ip) into experimental groups of five mice each. One to three hours post-infection, the experimental groups were treated with varying doses of each of the test compounds (0.5, 1, 10, 25 mg/kg BW) by the ip route. Each compound was made to strength of 5 mg/ml stock solution in 10% DMSO and administered according to desired concentration and individual body weight. Artemisinin was given to the standard drug group and 0.2 mL of normal saline to the negative control group.\nDay 1, 2 and 3: 24 hours, 48 hours and 72 hours post-infection, the experimental groups of mice were treated again with the same dose and by the same route as on day 0.\nDay 4: 24 hours after the last treatment (i.e., 96 hours post-infection), blood was drawn from the tail region of mice and smears were prepared. […] Differences in parasitemia percentage between treated groups and untreated animals were analysed by a one-way ANOVA test using IBM SPSS Statistics 16.0 and differences considered significant if P < 0.05. […] Percentinhibitionactivity=100–Meanparasitemia/control×100\nUntreated control mice typically died approximately one week after infection. […] The mean survival time was calculated in comparison to untreated (Normal saline) and standard drug (artemisinin) treated groups. Differences in survival time between treated groups and untreated animals were analysed by Log-rank (Mantel-Cox) test using GraphPad Prism 5 and differences considered significant if P <0.005. Observations concerning adverse effects due to the compounds were recorded."}, "[2]": {"conditions": "cited from earlier work"}}, "data": [{"smiles": "C[C@@H]1CC[C@H]2[C@@H](C)C(=O)O[C@@H]3O[C@@]4(C)CC[C@@H]1[C@]32OO4", "note": "[Artemisinin]", "values": [{"measurement": "Drug A (Artemisinin) Mean FIC50 ± SE", "setting": "[1]; ratio A:B 1:4, combined with compound 10", "value": "0.17 ± 0.03"}, {"measurement": "Drug A (Artemisinin) Mean FIC50 ± SE", "setting": "[1]; ratio A:B 1:4, combined with compound 12", "value": "0.25 ± 0.004"}, {"measurement": "Drug A (Artemisinin) Mean FIC50 ± SE", "setting": "[1]; ratio A:B 1:4, combined with compound 18", "value": "0.22 ± 0.01"}, {"measurement": "Drug A (Artemisinin) Mean FIC50 ± SE", "setting": "[1]; ratio A:B 1:4, combined with norfloxacin", "value": "0.14 ± 0.01"}, {"measurement": "Drug A (Artemisinin) Mean FIC50 ± SE", "setting": "[1]; ratio A:B 2:3, combined with compound 10", "value": "0.48 ± 0.02"}, {"measurement": "Drug A (Artemisinin) Mean FIC50 ± SE", "setting": "[1]; ratio A:B 2:3, combined with compound 12", "value": "0.50 ± 0.02"}, {"measurement": "Drug A (Artemisinin) Mean FIC50 ± SE", "setting": "[1]; ratio A:B 2:3, combined with compound 18", "value": "0.49 ± 0.04"}, {"measurement": "Drug A (Artemisinin) Mean FIC50 ± SE", "setting": "[1]; ratio A:B 2:3, combined with norfloxacin", "value": "0.66 ± 0.02"}, {"measurement": "Drug A (Artemisinin) Mean FIC50 ± SE", "setting": "[1]; ratio A:B 3:2, combined with compound 10", "value": "0.58 ± 0.03"}, {"measurement": "Drug A (Artemisinin) Mean FIC50 ± SE", "setting": "[1]; ratio A:B 3:2, combined with compound 12", "value": "0.60 ± 0.03"}, {"measurement": "Drug A (Artemisinin) Mean FIC50 ± SE", "setting": "[1]; ratio A:B 3:2, combined with compound 18", "value": "0.55 ± 0.03"}, {"measurement": "Drug A (Artemisinin) Mean FIC50 ± SE", "setting": "[1]; ratio A:B 3:2, combined with norfloxacin", "value": "0.29 ± 0.02"}, {"measurement": "Drug A (Artemisinin) Mean FIC50 ± SE", "setting": "[1]; ratio A:B 4:1, combined with compound 10", "value": "0.61 ± 0.01"}, {"measurement": "Drug A (Artemisinin) Mean FIC50 ± SE", "setting": "[1]; ratio A:B 4:1, combined with compound 12", "value": "0.63 ± 0.03"}, {"measurement": "Drug A (Artemisinin) Mean FIC50 ± SE", "setting": "[1]; ratio A:B 4:1, combined with compound 18", "value": "0.58 ± 0.02"}, {"measurement": "Drug A (Artemisinin) Mean FIC50 ± SE", "setting": "[1]; ratio A:B 4:1, combined with norfloxacin", "value": "0.91 ± 0.03"}, {"measurement": "Drug A (Artemisinin) Mean FIC50 ± SE", "setting": "[1]; ratio A:B 5:0, assay with compound 10", "value": "1.02 ± 0.04"}, {"measurement": "Drug A (Artemisinin) Mean FIC50 ± SE", "setting": "[1]; ratio A:B 5:0, assay with compound 12", "value": "1.0 ± 0.02"}, {"measurement": "Drug A (Artemisinin) Mean FIC50 ± SE", "setting": "[1]; ratio A:B 5:0, assay with compound 18", "value": "0.97 ± 0.07"}, {"measurement": "Drug A (Artemisinin) Mean FIC50 ± SE", "setting": "[1]; ratio A:B 5:0, assay with norfloxacin", "value": "1.13 ± 0.06"}, {"measurement": "Mean ED50 ± SE", "setting": "Plasmodium berghei ANKA", "value": "1.72 ± 0.15", "unit": "mg/kg BW"}, {"measurement": "Mean ED50 ± SE", "setting": "Plasmodium berghei ANKA; listed as artemisinin", "value": 1.72, "unit": "mg/kg BW"}, {"measurement": "survival of treated mice", "setting": "Plasmodium berghei ANKA; varying doses 0.5-25 mg/kg BW, observed 30 days", "value": "survived beyond two weeks"}, {"measurement": "half life", "setting": "[2]", "value": "< one"}]}]}
